Counter-ions that a name gives are not always drawn.

Assay [1] addresses HIS-TGFβR2 WT (Homo sapiens, UniProt P37173). Kind of assay: HTRF probe-displacement assay with HIS-TGFβR2 WT. The assay is classed as binding. The conditions noted are these: 1 nM HIS-TGFβR2 WT, labeled probe at Kd, 1 hour at room temperature. As for the experimental part: The reaction is incubated for 1 hour at room temperature and the HTRF signal was measured on an Envision plate reader (Ex: 340 nm; Em: 520 nm/495 nm). Inhibition data were calculated by comparison to no enzyme control reactions for 100% inhibition and vehicle-only reactions for 0% inhibition. The final concentration of reagents in the assay are 1 nM HIS-TGFβR1 T204D or HIS-TGFβR2 WT, 0.2 nM anti-HIS detection antibody, labeled small molecule probe (at Kd) and 0.5% DMSO. Dose response curves were generated to determine the concentration required inhibiting 50% of kinase activity (IC50). Compounds were dissolved at 10 mM in dimethylsulfoxide (DMSO) and evaluated at eleven concentrations. IC50 values were derived by non-linear regression analysis.
On the technique in general: TR-FRET usually uses a lanthanide donor and a delayed reading to cut background.

Assay [2] deals with T1, HIS-TGFβR1 T204D (Homo sapiens, UniProt P36897, T204D).
T1 sequence (P36897 34-503 T204D): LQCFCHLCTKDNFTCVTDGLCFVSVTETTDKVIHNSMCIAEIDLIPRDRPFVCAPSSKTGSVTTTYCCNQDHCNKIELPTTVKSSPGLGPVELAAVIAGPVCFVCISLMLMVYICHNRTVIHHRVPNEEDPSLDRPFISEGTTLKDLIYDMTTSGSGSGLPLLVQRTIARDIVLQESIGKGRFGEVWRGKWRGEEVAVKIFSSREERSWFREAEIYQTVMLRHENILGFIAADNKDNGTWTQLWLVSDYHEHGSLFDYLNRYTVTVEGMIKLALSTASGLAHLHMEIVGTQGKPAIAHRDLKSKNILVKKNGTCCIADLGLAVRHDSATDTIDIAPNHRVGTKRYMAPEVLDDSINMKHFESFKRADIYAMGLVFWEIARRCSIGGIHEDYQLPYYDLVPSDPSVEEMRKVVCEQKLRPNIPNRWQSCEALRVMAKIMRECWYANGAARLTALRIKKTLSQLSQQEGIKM
Kind of assay: HTRF probe-displacement assay with HIS-TGFβR1 T204D. The assay is classed as binding. The conditions noted are these: 1 nM HIS-TGFβR1 T204D, labeled probe at Kd, 1 hour at room temperature. A digest of the protocol:
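Binding read as HTRF probe displacement with 1 nM HIS-tagged kinase, 0.2 nM anti-HIS antibody, labelled probe at Kd and 0.5% DMSO, 1 h at room temperature (Ex 340, Em 520/495 nm). Eleven-point dose response normalised to no-enzyme and vehicle controls; IC50 from non-linear regression.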

Sequence of HIS-TGFβR2 WT (P37173 23-567): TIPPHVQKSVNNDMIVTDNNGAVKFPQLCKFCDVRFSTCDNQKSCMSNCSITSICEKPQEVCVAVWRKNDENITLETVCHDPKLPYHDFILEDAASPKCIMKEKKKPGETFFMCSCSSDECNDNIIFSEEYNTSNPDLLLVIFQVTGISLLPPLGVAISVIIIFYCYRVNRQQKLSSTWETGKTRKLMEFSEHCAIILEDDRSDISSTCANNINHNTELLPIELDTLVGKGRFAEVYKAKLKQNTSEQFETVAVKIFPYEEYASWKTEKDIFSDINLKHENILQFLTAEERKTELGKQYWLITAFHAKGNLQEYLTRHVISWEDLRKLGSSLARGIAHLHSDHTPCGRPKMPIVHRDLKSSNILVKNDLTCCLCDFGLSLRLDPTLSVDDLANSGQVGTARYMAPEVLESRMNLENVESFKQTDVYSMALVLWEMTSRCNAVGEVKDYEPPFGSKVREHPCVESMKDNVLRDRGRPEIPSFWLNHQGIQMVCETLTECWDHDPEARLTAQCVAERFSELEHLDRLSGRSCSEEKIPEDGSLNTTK

What is called IC50 is the concentration that inhibits the measured activity by half. Low readings indicate higher potency, high ones lower potency. Consider `NC(=O)c1cnc2ccc(-c3c(-c4ccc(F)cc4)n[nH]c3C(F)(F)F)cn12` [Example 106, 6-(3-(4-fluorophenyl)-5-(trifluoromethyl)-1H-pyrazol-4-yl)imidazo[1,2-a]pyridine-3-carboxamide], for which the IC50 turned out to be 6.66 µM in assay [1] and 0.001 µM in assay [2].
Consider `Cc1cccc(-c2n[nH]cc2-c2ccc3ncc(C#N)n3n2)n1` [Example 20, 6-(3-(6-methylpyridin-2-yl)-1H-pyrazol-4-yl)imidazo[1,2-b]pyridazine-3-carbonitrile], for which the figures for the IC50 in assay [1] and in assay [2] were 1.45 µM and 0.001 µM, respectively.
The like results for `NC(=O)c1cnc2ccc(-c3c[nH]nc3-c3ccc(Cl)cc3)cn12` [Example 47, 6-(3-(4-chlorophenyl)-1H-pyrazol-4-yl)imidazo[1,2-a]pyridine-3-carboxamide] were, in that order, 0.709 µM and 0.004 µM.
The like results for `CC(C)c1[nH]nc(-c2ccc(Cl)cc2)c1-c1ccc2ncc(C(N)=O)n2c1` [Example 76, 6-(3-(4-chlorophenyl)-5-isopropyl-1H-pyrazol-4-yl)imidazo[1,2-a]pyridine-3-carboxamide] were, in that order, 6.59 µM and 0.001 µM.
The corresponding values for `Cc1[nH]nc(-c2cccc(F)n2)c1-c1ccc2ncc(C#N)n2c1` [Example 66, 6-(3-(6-fluoropyridin-2-yl)-5-methyl-1H-pyrazol-4-yl)imidazo [1,2-a]pyridine-3-carbonitrile] are 0.277 µM and 0.001 µM.
Turning to `N#Cc1cnc2ccc(-c3c[nH]nc3-c3ccc(F)c(Cl)c3)cn12` [Example 41, 6-(3-(3-chloro-4-fluorophenyl)-1H-pyrazol-4-yl)imidazo[1,2-a]pyridine-3-carbonitrile], the results for the IC50 in assay [1] and in assay [2] were 0.098 µM and 0.001 µM, respectively.
As to `NC(=O)c1cnc2ccc(-c3c(-c4ccc(Cl)cc4)n[nH]c3C3CC3)cn12` [Example 97, 6-(3-(4-chlorophenyl)-5-cyclopropyl-1H-pyrazol-4-yl)imidazo[1,2-a]pyridine-3-carboxamide], the IC50 amounted to 6.36 µM in assay [1] and 0.001 µM in assay [2].
The like results for `Fc1ccc(-c2n[nH]c(C3CC3)c2-c2ccc3nccn3n2)cc1` [Example 87, 6-(5-cyclopropyl-3-(4-fluorophenyl)-1H-pyrazol-4-yl)imidazo [1,2-b]pyridazine] were, in that order, 6.9 µM and 0.002 µM.
Regarding `OCc1[nH]nc(-c2ccc(F)cc2)c1-c1ccc2nccn2c1` [Example 134, (3-(4-fluorophenyl)-4-(imidazo[1,2-a]pyridin-6-yl)-1H-pyrazol-5-yl)methanol], the IC50 in assay [1] amounted to 13.1 µM; in assay [2], 0.027 µM.
With `Cc1cccc(-c2n[nH]c(CO)c2-c2ccc3nccn3c2)n1` [Example 141, (4-(imidazo[1,2-a]pyridin-6-yl)-3-(6-methylpyridin-2-yl)-1H-pyrazol-5-yl)methanol], the results for the IC50 in assay [1] and in assay [2] were 4.47 µM and 0.001 µM, respectively.
The corresponding values for `CCOC(=O)c1cnc2ccc(-c3cn(C)nc3-c3cccc(C)n3)cn12` [Example 51, ethyl 6-(1-methyl-3-(6-methylpyridin-2-yl)-1H-pyrazol-4-yl)imidazo[1,2-a]pyridine-3-carboxylate] are 2.23 µM and 0.001 µM.
The like results for `Cc1cccc(-c2n[nH]c(C3CC3)c2-c2ccc3ncc(C(N)=O)n3c2)n1` [Example 122, 6-(5-cyclopropyl-3-(6-methylpyridin-2-yl)-1H-pyrazol-4-yl)imidazo[1,2-a]pyridine-3-carboxamide] were, in that order, 0.004 µM and 0.001 µM.
The like results for `Fc1ccc(-c2n[nH]cc2-c2ccc3nccn3n2)cc1` [Example 55, 6-(3-(4-fluorophenyl)-1H-pyrazol-4-yl)imidazo[1,2-b]pyridazine] were, in that order, 4.93 µM and 0.006 µM.
`Cn1cc(-c2ccc3ncc(C#N)n3c2)c(-c2ccc(F)cc2)n1` [Example 37, 6-(3-(4-fluorophenyl)-1-methyl-1H-pyrazol-4-yl)imidazo[1,2-a]pyridine-3-carbonitrile]: the values for the IC50 in assay [1] and in assay [2] were 0.165 µM and 0.042 µM, respectively.
Take `Fc1ccc(-c2n[nH]cc2-c2ccc3nccn3n2)cc1Cl` [Example 39, 6-(3-(3-chloro-4-fluorophenyl)-1H-pyrazol-4-yl)imidazo[1,2-b]pyridazine, TFA]: the IC50 in assay [1] was 1.65 µM; in assay [2], 0.004 µM.
The like results for `Cc1cccc(-c2nn(CC(F)F)cc2-c2ccc3ncc(C(N)=O)n3c2)n1` [Example 28, 6-(1-(2,2-difluoroethyl)-3-(6-methylpyridin-2-yl)-1H-pyrazol-4-yl)imidazo[1,2-a]pyridine-3-carboxamide] were, in that order, 0.075 µM and 0.001 µM.
The like results for `CCOC(=O)c1cnc2ccc(-c3c[nH]nc3-c3ccc(F)cc3)cn12` [Example 57, ethyl 6-(3-(4-fluorophenyl)-1H-pyrazol-4-yl)imidazo[1,2-a]pyridine-3-carboxylate] were, in that order, 3.71 µM and 0.003 µM.
The corresponding values for `Cc1cccc(-c2nn(C)c(C(C)C)c2-c2ccc3nccn3c2)n1` [Example 119, 6-(5-isopropyl-1-methyl-3-(6-methylpyridin-2-yl)-1H-pyrazol-4-yl)imidazo[1,2-a]pyridine] are 4.95 µM and 0.003 µM.
Take `CC(C)c1c(-c2ccc3ncc(C(N)=O)n3c2)c(-c2ccc(F)cc2)nn1C` [Example 72]: the IC50 in assay [1] turned out to be 0.963 µM; in assay [2], 0.002 µM.
As to `CC(C)(O)c1cnc2ccc(-c3c[nH]nc3-c3ccc(F)cc3)cn12` [Example 59, 2-(6-(3-(4-fluorophenyl)-1H-pyrazol-4-yl)imidazo[1,2-a]pyridin-3-yl)propan-2-ol], the IC50 in assay [1] was determined as 5.34 µM; in assay [2], 0.241 µM.
The like results for `Cn1nc(-c2ccc(F)cc2)c(-c2ccc3ncc(C(N)=O)n3c2)c1C1CC1` [Example 94, 6-(5-cyclopropyl-3-(4-fluorophenyl)-1-methyl-1H-pyrazol-4-yl)imidazo[1,2-a]pyridine-3-carboxamide] were, in that order, 0.806 µM and 0.001 µM.
The like results for `CCc1[nH]nc(-c2cccc(C)n2)c1-c1ccc2ncc(C(N)=O)n2c1` [Example 125, 6-(5-ethyl-3-(6-methylpyridin-2-yl)-1H-pyrazol-4-yl)imidazo[1,2-a]pyridine-3-carboxamide] were, in that order, 0.013 µM and 0.001 µM.
On to `N#Cc1cnc2ccc(-c3c[nH]nc3-c3cccc(C(F)F)n3)cn12` [Example 4, 6-(3-(6-(difluoromethyl)pyridin-2-yl)-1H-pyrazol-4-yl)imidazo[1,2-a]pyridine-3-carbonitrile], for which the IC50 in assay [1] was determined as 1.11 µM; in assay [2], 0.001 µM.
The like results for `Cn1cc(-c2ccc3ncc(C(N)=O)n3c2)c(-c2ccc(F)cc2)n1` [Example 38, 6-(3-(4-fluorophenyl)-1-methyl-1H-pyrazol-4-yl)imidazo[1,2-a]pyridine-3-carboxamide] were, in that order, 1.54 µM and 0.002 µM.
The like results for `N#Cc1cnc2ccc(-c3cn(CCO)nc3-c3ccc(F)c(Cl)c3)cn12` [Example 44, 6-(3-(3-chloro-4-fluorophenyl)-1-(2-hydroxyethyl)-1H-pyrazol-4-yl)imidazo[1,2-a]pyridine-3-carbonitrile] were, in that order, 0.369 µM and 0.002 µM.
The corresponding values for `Cc1cccc(-c2nn(C)c(C)c2-c2ccc3ncc(C(N)=O)n3c2)n1` [Example 65, 6-(1,5-dimethyl-3-(6-methylpyridin-2-yl)-1H-pyrazol-4-yl)imidazo[1,2-a]pyridine-3-carboxamide] are 0.194 µM and 0.001 µM.
Turning to `CC(=O)Nc1cc(-c2c(-c3ccc(F)cc3)nn3c2COCC3)ccn1` [Example 112, N-(4-(2-(4-fluorophenyl)-6,7-dihydro-4H-pyrazolo[5,1-c][1,4]oxazin-3-yl)pyridin-2-yl)acetamide], the IC50 is 0.105 µM in assay [1] and 0.011 µM in assay [2].
For `O=C(NC1CC1)c1cnc2ccc(-c3c(-c4ccc(F)cc4)n[nH]c3C3CC3)cn12` [Example 92, N-cyclopropyl-6-(5-cyclopropyl-3-(4-fluorophenyl)-1H-pyrazol-4-yl)imidazo[1,2-a]pyridine-3-carboxamide], the IC50 in assay [1] came out at 2.65 µM; in assay [2] it was 0.001 µM.
The corresponding values for `NC(=O)c1cnc2ccc(-c3c[nH]nc3-c3cccc(C(F)(F)F)n3)cn12` [Example 2, 6-(3-(6-(trifluoromethyl)pyridin-2-yl)-1H-pyrazol-4-yl)imidazo[1,2-a]pyridine-3-carboxamide] are 1.83 µM and 0.001 µM.

The record behind these values is patent US20190292179A1 (BRISTOL-MYERS SQUIBB COMPANY, priority 2016, published 2019).
